Reference: patent US20140275234A1, “COMPOSITIONS AND METHODS OF USING CRYSTALLINE FORMS OF WORTMANNIN ANALOGS” (ONCOTHYREON INC., priority 2010, published 2014)

What was measured:
[1] = Solubility Screening Test I and II, HPLC of supernatant; format: physicochemical; settings: in toluene, anisole, and o-xylene
Protocol: For each solvent, a 100 μL glass crimp-top vial was charged with ˜10 mg of PX-866 and sealed. By syringe, 2 parts of the appropriate solvent was added. If PX-866 dissolved completely, no further work was done. If necessary, more solvent was added to obtain a supernatant. The crimped vial was sonicated for 15 minutes and then centrifuged for 30 seconds. 1.0 μL of the supernatant was removed by syringe and added to a sealed HPLC vial containing 500 μL of acetonitrile. The same saturated solution was then heated for 30 minutes to a set point of 50° C., centrifuged again, and a second HPLC vial was prepared with 1.0 μL of the supernatant at 50° C. In the case of toluene, anisole, o-xylene, propyl acetate, 4-methyl-2-pentanone, and 1-pentanol the room temperature supernatant was transferred to a clean vial and cooled down to 0° C., and then −20° C. For each temperature, an HPLC vial was prepared with 1.0 μL of the supernatant. HPLC samples were run using the method described below and the 254 nm AUC was plotted on a calibration curve to obtain solubility data.
The samples that crystallized were cooled to 0° C. and subsequently −20° C. to acquire two additional temperature points. Solubility in the aliphatic solvents (propyl acetate, 4-methyl-2-pentanone, and 1-pentanol) decreased drastically with temperature from RT to −20° C.

[2] = aqueous solutions at either 37° C. or 0° C. at neutral pH; cited from earlier work
[3] = system: phosphatidylinositol-3-kinase (PI-3K); settings: cited from earlier work

COC[C@H]1OC(=O)c2coc3c2[C@@]1(C)C1=C(C3=O)[C@@H]2CCC(=O)[C@@]2(C)C[C@H]1OC(C)=O [wortmannin]
Solubility [1]: low | stability in aqueous solution [2]: subject to decomposition | inhibition of PI-3K [3]: irreversibly inhibits | inhibition of PI-3 kinase isoforms ([3]; p110α, p110β, p110δ and p110γ): inhibited equally
